Data on three molecules can be found in US9394228B2, “Methods of treatment using lipid compounds” (PRONOVA BIOPHARMA NORGE AS, priority 2010, dated 2016).

For test [1], the target named is T1, PPAR[…] (positive control GW501516, i.e. PPARδ) (Homo sapiens, UniProt Q03181).
T1 construct: expressed in transfected cells; host or cells: HEK293
Nature of the test: PPAR activation in vitro, mammalian-one-hybrid (M1H) GAL4-PPAR-LBD luciferase reporter assay. The class given is cell-based. The note with it: second PPAR[…] column; for Efficacy: efficacy of positive control GW501516 set to 100%, HEK293 cells; for EC50: transiently transfected HEK293 cells, compound incubation 16-20 hours. The protocol: (§1) Compounds (A)-(C) and a positive control were tested at six different concentrations in duplicate:
(§2) The positive controls were GW7647 (PPAR[…]), GW501516 (PPAR[…]) and rosiglitazone (PPAR[…]). The efficacy of the controls were set to 100%.
(§3) Assays were carried out in vitro using mammalian-one-hybrid assays (M1H) comprising GAL4-DNA binding domain-PPAR-LBD fusion constructs in conjunction with 5×GAL4-sites driven Photinus pyralis luciferase reporter constructs in transiently transfected HEK293 cells. The cells were transfected 4-6 hours and grown overnight before compounds were added. Compound incubation was 16-20 hours. Renilla reniformis luciferase, driven by a constitutive promoter, was included as internal control to improve experimental accuracy.
Background: A reporter such as luciferase makes a cellular process visible.

Test [2] addresses T2, PPAR[…] (positive control rosiglitazone, i.e. PPARγ) (Homo sapiens, UniProt P37231).
T2 construct: expressed in transfected cells; host or cells: HEK293
The test is described as above. The class given is cell-based. The note with it: efficacy of positive control rosiglitazone set to 100%; HEK293 cells; third PPAR[…] column. On the procedure:
as §1, §2, §3

Test [3] concerns the target T3, PPAR[…] (positive control GW7647, i.e. PPARα) (Homo sapiens, UniProt Q07869).
T3 construct: expressed in transfected cells; host or cells: HEK293
Described as above. Conditions: efficacy of positive control GW7647 set to 100%; HEK293 cells; first PPAR[…] column. The class given is cell-based. The protocol:
as §1, §2, §3

The test system of test [4] is APOE*3Leiden.CETP transgenic mice. Nature of the test: Effects on in vivo atherosclerosis development in a mouse model. The source says:
The APOE*3Leiden.CETP transgenic mouse has proven to be representative of the human situation with respect to plasma lipoprotein levels and its responsiveness to hypolipidemic drugs (like statins, fibrates etc.) and nutritional intervention. APOE*3Leiden.CETP mice develop atherosclerotic lesions in the aorta resembling those found in humans with respect to cellular composition and morphological and immunohistochemical characteristics.
Female APOE*3Leiden.CETP mice were put on a Western-type diet (WTD) with 0.15% cholesterol and 15% saturated fat; resulting in plasma cholesterol levels of about 13-15 mM. After a 3 week run-in period on the WTD, the mice were sub-divided into 4 groups of 15 mice, control (no treatment), Compound A of Example 2 above, fenofibrate and a low-cholesterol diet. The groups were matched for body weight, plasma total cholesterol (TC), HDL cholesterol (HDL-C) and triglycerides (TG) after 4 h fasting (t=0).
The test substances were administered orally as admix to the Western-type diet. To facilitate the mixing of the compounds sunflower oil was added to a total oil volume of 10 mL/kg diet. Compound (A) was tested at initially at 0.1 mmol/kg bw/day and reduced to 0.04 mmol/kg bw/day at 4 weeks; the initial dose was based on a prior dose-finding study to establish the required dosage that would reduce VLDL/LDL cholesterol by 25-30%. The fenofibrate dose was initially 10 mg/kg bw/day, and later reduced to 4.2 mg/kg bw/day to parallel reductions in VLDL/LDL cholesterol induced by Compound A.
At t=0 and t=17 weeks, blood samples were taken after a 4 hour-fast period to measure plasma cholesterol and triglycerides. Atherosclerosis development in aortic root (total lesion area) was measured at sacrifice.
The results for total cholesterol (mM), HDL cholesterol (mM), lesion area (μm^2*1000) and undiseased segments (%) are shown in FIGS. 4, 5, 6, and 7, respectively.

T3 sequence (Q07869 239-466 limits assumed, species assumed): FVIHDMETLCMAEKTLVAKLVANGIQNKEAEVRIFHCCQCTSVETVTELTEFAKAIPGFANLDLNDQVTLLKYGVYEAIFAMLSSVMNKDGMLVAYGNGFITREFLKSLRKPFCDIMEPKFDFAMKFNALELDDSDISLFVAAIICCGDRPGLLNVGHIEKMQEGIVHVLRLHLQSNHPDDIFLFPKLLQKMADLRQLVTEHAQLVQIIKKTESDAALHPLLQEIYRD
T3 sequence (P04386 1-147 partner limits assumed, species assumed): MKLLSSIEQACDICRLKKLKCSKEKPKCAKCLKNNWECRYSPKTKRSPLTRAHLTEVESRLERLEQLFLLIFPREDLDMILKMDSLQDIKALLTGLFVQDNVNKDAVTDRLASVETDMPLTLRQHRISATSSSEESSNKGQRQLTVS
T2 sequence (P37231 238-503 limits assumed): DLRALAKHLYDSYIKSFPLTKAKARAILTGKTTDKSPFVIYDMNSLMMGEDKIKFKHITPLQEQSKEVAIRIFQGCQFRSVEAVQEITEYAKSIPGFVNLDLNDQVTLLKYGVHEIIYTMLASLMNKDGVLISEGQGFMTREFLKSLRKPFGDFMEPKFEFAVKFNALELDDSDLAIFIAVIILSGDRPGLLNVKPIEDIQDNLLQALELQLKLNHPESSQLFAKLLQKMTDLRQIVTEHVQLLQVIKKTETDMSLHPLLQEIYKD
T2 sequence (P04386 1-147 partner limits assumed): as the sequence (P04386 1-147 partner limits assumed, species assumed) above
T1 sequence (Q03181 211-439 limits assumed): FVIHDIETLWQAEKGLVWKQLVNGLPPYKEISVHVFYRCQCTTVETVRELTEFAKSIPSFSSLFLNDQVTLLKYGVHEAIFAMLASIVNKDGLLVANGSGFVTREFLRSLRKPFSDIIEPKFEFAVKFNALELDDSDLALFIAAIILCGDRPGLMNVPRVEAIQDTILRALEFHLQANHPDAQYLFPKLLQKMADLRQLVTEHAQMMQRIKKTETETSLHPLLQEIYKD
T1 sequence (P04386 1-147 partner limits assumed): as the sequence (P04386 1-147 partner limits assumed, species assumed) above

Take `CC/C=C\C/C=C\C/C=C\C/C=C\C/C=C\CCCCO[C@@H](CC)C(=O)O` [Compound B, (S)-2-((5Z,8Z,11Z,14Z,17Z)-icosa-5,8,11,14,17-pentaenyloxy)butanoic acid]: the Efficacy result in test [1] was “inactive”; in test [2] it was 27%; in test [3], 86%. Besides, in test [1], the EC50 result is “inactive”.

For `CC/C=C\C/C=C\C/C=C\C/C=C\C/C=C\CCCCO[C@H](CC)C(=O)O` [Compound C, (R)-2-((5Z,8Z,11Z,14Z,17Z)-icosa-5,8,11,14,17-pentaenyloxy)butanoic acid], the Efficacy result was “inactive” in test [1], 25% in test [2] and 54% in test [3]. The EC50 result in test [1] was “inactive”.

With `CC/C=C\C/C=C\C/C=C\C/C=C\C/C=C\CCCCOC(CC)C(=O)O` (stereo not shown) [Compound A, 2-((5Z,8Z,11Z,14Z,17Z)-icosa-5,8,11,14,17-pentaenyloxy)butanoic acid], the Efficacy entry was “inactive” in test [1], 22% in test [2] and 82% in test [3]. The EC50 result in test [1] was “inactive”. For the same molecule, the development of atherosclerosis result in test [4] (APOE*3Leiden.CETP transgenic mice, overall conclusion) is listed as “inhibits”. The lesion area entry in test [4] (aortic root, at sacrifice, as compared to control, p<0.003) was “significantly decreased”. The total cholesterol entry in test [4] (as compared to control, p<0.001, oral admix to Western-type diet, 0.1 then 0.04 mmol/kg bw/day, t=17 weeks) is on record as “significantly decreased”. The HDL cholesterol entry in test [4] (as compared to control, p<0.003, oral admix to Western-type diet, 0.1 then 0.04 mmol/kg bw/day, t=17 weeks) is on record as “significantly increased”.
